We go through eight molecules from paper PMC8391127, “Triterpenoid–PEG Ribbons Targeting Selectivity in Pharmacological Effects” (Biomedicines, 2021).

In data set [1] the test system is Bacillus cereus. The experiment in a line: Antimicrobial screening, resazurine test. Type of data set: cell-based. Conditions: for inhibition at 25 µg/mL / inhibition at 50 µg/mL / inhibition at 100 µg/mL: Bacillus cereus. The method, then: (§1) The resazurine test was used to evaluate this activity.
(§2) The cell inoculum was made in Mueller–Hinton broth (10 mL). Colonies of cells were inoculated from the solid medium that was cultivated for 24 h under optimum conditions. A part of the inoculum was diluted to get suspension with an optical density 0.6 to 0.9 McF. An aliquot amount (1 mL) was taken and diluted with additional volume of the medium (19 mL). The stored solutions of the tested compounds were made at a concentration c = 200 µg.mL^−1. The stored suspensions of the cells, MHB medium, solutions of the antibiotics specific for the given bacteria (vancomycin for S. aureus and E. faecalis, kanamycin for E. coli and P. aeruginosa, and tetracycline for B. cereus), and the solutions of the compounds were pipetted into the microtitration plates. Subsequently, a concentration sequence of the tested compounds was made (c = 100, 50, and 25 µg.mL^−1). The content of the microtitration plates was cultivated for 24 h under optimum conditions for the given bacteria. A solution of resazurine was made, based on a dilution of its stored solution (c = 0.15 mg.mL^−1; 2 mL) into the MHB medium (18 mL). Then, it was pipetted into the microtitration plates that were cultivated for an additional 1 h. Finally, fluorescence measurement (excitation at 560 nm, emission at 590 nm) was made, and the inhibition of the bacterium was determined.
(§3) 2. Antimicrobial screening tests
(§4) Antimicrobial activity of the target molecular ribbons 8a, 12a, 8b, 12b, 4c, 6c, 6d and 8d, and […]
(§5) aeruginosa, Staphylococcus aureus and Enterococcus faecalis. The resazurine test was used to […]
(§6) ribbons which have been achieved in this investigation.
(§7) Table S1. Antimicrobial activity, inhibition of the microorganism [%]
(§8) Comp. Staphylococcus aureus Comp. Escherichia coli […]
(§9) µg·mL-1 µg·mL-1 µg·mL-1 µg·mL-1 µg·mL-1 µg·mL-1
(§10) Comp. Bacillus cereus Comp. Pseudomonas aeruginosa

Data set [2] has as its system Enterococcus faecalis. As to the kind of experiment: Antimicrobial screening, resazurine test. Format: cell-based. Conditions: for inhibition at 25 µg/mL / inhibition at 50 µg/mL / inhibition at 100 µg/mL: Enterococcus faecalis, read-out: Inhibition of the microorganism. The method, then: as §1, §2, §3, §4, §5, §6, §7, §8, §9, §10
(The colour change of resazurin is a common sign of viable cells or microbes.)

In data set [3] the test system is Pseudomonas aeruginosa. The experiment in a line: Antimicrobial screening, resazurine test. Type of data set: cell-based. The method, then: as §1, §2, §3, §4, §5, §6, §7, §8, §9, §10
Data set [4] deals with Staphylococcus aureus. The experiment in a line: Antimicrobial screening, resazurine test. Type of data set: cell-based. Conditions: Staphylococcus aureus, read-out: Inhibition of the microorganism. The procedure:
as §1, §2, §3, §4, §5, §6, §7, §8, §9, §10

Data set [5] deals with Escherichia coli. As to the kind of experiment: Antimicrobial screening, resazurine test. Conditions: Escherichia coli, read-out: Inhibition of the microorganism. Type of data set: cell-based. The method, then:
as §1, §2, §3, §4, §5, §6, §7, §8, §9, §10

The nature of data set [6]: Self-assembly by UV-VIS spectrometry in methanol/water mixtures. Conditions: 0-140 h. Type of data set: physicochemical. The method, then:
The self-assembly of the selected compounds 8a, 12a, 8b, 12b, 4c, 6c, 6d, and 8d was measured using UV absorption in methanol/water mixtures with a constant concentration of the studied compound for 7 days in one-hour intervals on the first day, and in 24 h intervals all following days. The stock solutions of the studied compounds were prepared at a concentration of 1 mg·mL^−1 in water. Then, a series of methanol/water mixtures were prepared starting from a methanol/water ratio 100/0 down to 0/100 in 20% steps. The stock solutions of the studied compounds (0.15 mL) were added separately to each vial containing methanol/water mixtures (3 mL), and the UV spectra were recorded in the wavelength range of 200–400 nm. […] For the compounds 8a, 12a, 12b and 6d, the details are presented in the Supplementary Material; see Figure S2.
Supramolecular self-assembly was studied on the basis of the UV-VIS spectra of the compounds in several methanol/water mixtures stepwise during the time interval 0-140 h. Here we show compounds 8a, 12a, 12b and 6d as examples, with which the irregularities in the UV-VIS spectra were either well pronounced (8a and 12a; Figure S2), or no substantial irregularity was detected (12b and 6d).
Figure S2. UV-VIS spectra of 8a (top) and 12a (bottom) measured in the interval 0-140 h.
During that time interval a new maximum appeared at 300 nm wavelength, and the shape of the curves is different than in any of the other intervals of measurement. […]

Setting [7] is: B. cereus, c = 25 µg·mL-1, read-out: Inhibition of the microorganism.
Setting [8] is: B. cereus, c = 50 µg·mL-1, read-out: Inhibition of the microorganism.
[9] abbreviates: B. cereus, c = 100 µg·mL-1, read-out: Inhibition of the microorganism.
Setting [10] is: P. aeruginosa, c = 25 µg·mL-1, read-out: Inhibition of the microorganism.
Where [11] appears, read: P. aeruginosa, c = 50 µg·mL-1, read-out: Inhibition of the microorganism.
Where [12] appears, read: P. aeruginosa, c = 100 µg·mL-1, read-out: Inhibition of the microorganism.
The mark [13] stands for this setting: read-out: Inhibition of the microorganism.

Like-named read-outs stand apart in the source and are kept apart here.

As usually defined, the inhibition is the percentage by which the read-out fell short of the control. Consider `CC1(C)CC[C@]2(C(=O)O)CC[C@]3(C)C(=CC[C@@H]4[C@@]5(C)CC[C@H](O)C(C)(C)[C@@H]5CC[C@]43C)[C@@H]2C1` [1a, Oleanolic acid, reference compound], for which the “Inhibition of the microorganism” value worked out at 76 ± 11.4% in data set [1] (B. cereus, c = 25 µg·mL-1) and 87 ± 13.0% in data set [2] (E. faecalis, c = 25 µg·mL-1). The inhibition at 25 µg/mL in data set [1] (setting [7]) is more than 77%; in data set [2] (E. faecalis, c = 25 µg·mL-1), more than 87%; in data set [3] (setting [10]), 0 to 1%; in data set [4] (S. aureus, c = 25 µg·mL-1) it was 0 to 1%; in data set [5] (E. coli, c = 25 µg·mL-1) it was 0 to 1%. The inhibition at 50 µg/mL in data set [1] (setting [8]) is 77 ± 11.6%; in data set [2] (E. faecalis, c = 50 µg·mL-1) it was 90 ± 13.5%; in data set [3] (setting [11]), 0 to 1%; in data set [4] (S. aureus, c = 50 µg·mL-1), 8 ± 1.2%; in data set [5] (E. coli, c = 50 µg·mL-1), 0 to 1%. For the same molecule, the inhibition at 100 µg/mL in data set [1] (setting [9]) was 77 ± 11.6%; in data set [2] (E. faecalis, c = 100 µg·mL-1), 89 ± 13.4%; in data set [3] (setting [12]) it was 0 to 1%; in data set [4] (S. aureus, c = 100 µg·mL-1), 33 ± 5%; in data set [5] (E. coli, c = 100 µg·mL-1), 0 to 1%.
Regarding `CC1(C)C=C2[C@H]3CC[C@@H]4[C@@]5(C)CC[C@H](O)C(C)(C)[C@@H]5CC[C@@]4(C)[C@]3(C)CC[C@@]2(C(=O)O)CC1` [1b, morolic acid, reference compound], in data set [1] (B. cereus, c = 25 µg·mL-1), the “Inhibition of the microorganism” value amounted to 78 ± 11.7%. The inhibition at 25 µg/mL in data set [1] (read-out: Inhibition of the microorganism, B. cereus, c = 25 µg·mL-1) is more than 77%; in data set [2], 38 ± 5.7%; in data set [3] (setting [13]) it was 0 to 1%; in data set [4] it was 21 ± 3.2%; in data set [5] it was 0 to 1%. In addition, the inhibition at 50 µg/mL was 76 ± 11.4% in data set [1] (read-out: Inhibition of the microorganism, B. cereus, c = 50 µg·mL-1); 64 ± 9.6% in data set [2]; 0 to 1% in data set [3] (setting [13]); 17 ± 2.6% in data set [4]; 2 ± 0.3% in data set [5]. Further, the inhibition at 100 µg/mL in data set [1] (read-out: Inhibition of the microorganism, B. cereus, c = 100 µg·mL-1) is 75 ± 11.3%; in data set [2], 69 ± 10.4%; in data set [3] (setting [13]), 0 to 1%; in data set [4], 47 ± 7%; in data set [5], 0 to 1%.
Regarding `CC1(C)C=C2[C@H]3CC[C@@H]4[C@@]5(C)CCC(=O)C(C)(C)[C@@H]5CC[C@@]4(C)[C@]3(C)CC[C@@]2(C(=O)O)CC1` [1c, moronic acid, reference compound], the inhibition at 25 µg/mL in data set [1] (setting [7]) lay in the range of 0 to 1%; in data set [2] (E. faecalis, c = 25 µg·mL-1), 0 to 1%; in data set [3] (setting [10]), 0 to 1%; in data set [4] (S. aureus, c = 25 µg·mL-1), 0 to 1%; in data set [5] (E. coli, c = 25 µg·mL-1) it was 0 to 1%. Further, the inhibition at 50 µg/mL in data set [1] (setting [8]) was 15 ± 2.3%; in data set [2] (E. faecalis, c = 50 µg·mL-1) it was 0 to 1%; in data set [3] (setting [11]), 0 to 1%; in data set [4] (S. aureus, c = 50 µg·mL-1), 3 ± 0.5%; in data set [5] (E. coli, c = 50 µg·mL-1), 0 to 1%. For the same molecule, the inhibition at 100 µg/mL in data set [1] (setting [9]) was 66 ± 9.9%; in data set [2] (E. faecalis, c = 100 µg·mL-1) it was 0 to 1%; in data set [3] (setting [12]), 0 to 1%; in data set [4] (S. aureus, c = 100 µg·mL-1) it was 10 ± 1.5%; in data set [5] (E. coli, c = 100 µg·mL-1), 0 to 1%.
`CC1(C)C=C2C3CC[C@@H]4[C@@]5(C)CC[C@H](OCc6cn(CCOCCOCCOCCNC(=O)[C@]78CCC(C)(C)C=C7C7CC[C@@H]9[C@@]%10(C)CC[C@H](O)C(C)(C)[C@@H]%10CC[C@@]9(C)[C@]7(C)CC8)nn6)C(C)(C)[C@@H]5CC[C@@]4(C)[C@]3(C)CC[C@@]2(C(=O)O)CC1` (some centres unmarked) [8b]: the inhibition at 25 µg/mL is 16 ± 2.4% in data set [1] (setting [7]); 20 ± 3% in data set [2] (E. faecalis, c = 25 µg·mL-1); 33 ± 5% in data set [3] (setting [10]); 0 to 1% in data set [4] (S. aureus, c = 25 µg·mL-1); 17 ± 2.6% in data set [5] (E. coli, c = 25 µg·mL-1). Besides, the inhibition at 50 µg/mL is 38 ± 5.7% in data set [1] (setting [8]); 43 ± 6.5% in data set [2] (E. faecalis, c = 50 µg·mL-1); 59 ± 8.9% in data set [3] (setting [11]); 24 ± 3.6% in data set [4] (S. aureus, c = 50 µg·mL-1); 25 ± 3.8% in data set [5] (E. coli, c = 50 µg·mL-1). For the same molecule, the inhibition at 100 µg/mL is 0 to 1% in data set [1] (setting [9]); 54 ± 8.1% in data set [2] (E. faecalis, c = 100 µg·mL-1); 60 ± 9% in data set [3] (setting [12]); 77 ± 11.6% in data set [4] (S. aureus, c = 100 µg·mL-1); 31 ± 4.7% in data set [5] (E. coli, c = 100 µg·mL-1).
`CC1(C)CC[C@]2(C(=O)O)CC[C@]3(C)C(=CC[C@@H]4[C@@]5(C)CC[C@H](OCc6cn(CCOCCOCCOCCNC(=O)[C@]78CCC(C)(C)CC7C7=CC[C@@H]9[C@@]%10(C)CC[C@H](OCc%11cn(CCOCCOCCOCCNC(=O)[C@]%12%13CCC(C)(C)CC%12C%12=CC[C@@H]%14[C@@]%15(C)CC[C@H](O)C(C)(C)[C@@H]%15CC[C@@]%14(C)[C@]%12(C)CC%13)nn%11)C(C)(C)[C@@H]%10CC[C@@]9(C)[C@]7(C)CC8)nn6)C(C)(C)[C@@H]5CC[C@]43C)C2C1` (some centres unmarked) [12a]: in data set [6], the “Irregularity in UV-VIS spectra (self-assembly)” value is “Irregularities were detected”.
The same measure, in the same setting: next, `CC1(C)C=C2C3CC[C@@H]4[C@@]5(C)CC[C@H](OCc6cn(CCOCCOCCOCCNC(=O)[C@]78CCC(C)(C)C=C7C7CC[C@@H]9[C@@]%10(C)CC[C@H](OCc%11cn(CCOCCOCCOCCNC(=O)[C@]%12%13CCC(C)(C)C=C%12C%12CC[C@@H]%14[C@@]%15(C)CC[C@H](O)C(C)(C)[C@@H]%15CC[C@@]%14(C)[C@]%12(C)CC%13)nn%11)C(C)(C)[C@@H]%10CC[C@@]9(C)[C@]7(C)CC8)nn6)C(C)(C)[C@@H]5CC[C@@]4(C)[C@]3(C)CC[C@@]2(C(=O)O)CC1` (some centres unmarked) [12b]: “No substantial irregularity was detected”.
Regarding `CN(C)[C@@H]1C(O)=C(C(N)=O)C(=O)[C@@]2(O)C(O)=C3C(=O)c4c(O)cccc4[C@@](C)(O)[C@H]3C[C@@H]12` [tetracycline, reference compound], the inhibition at 25 µg/mL in data set [1] (setting [7]) is 99%.
For `CN[C@H](CC(C)C)C(=O)N[C@H]1C(=O)N[C@@H](CC(N)=O)C(=O)N[C@H]2C(=O)N[C@H]3C(=O)N[C@H](C(=O)N[C@H](C(=O)O)c4cc(O)cc(O)c4-c4cc3ccc4O)[C@H](O)c3ccc(c(Cl)c3)Oc3cc2cc(c3O[C@@H]2O[C@H](CO)[C@@H](O)[C@H](O)[C@H]2O[C@H]2C[C@](C)(N)[C@H](O)[C@H](C)O2)Oc2ccc(cc2Cl)[C@H]1O` [vancomycin, reference compound], the inhibition at 25 µg/mL in data set [2] and in data set [4] was 99% each time.
